Common to all, as to format: biochemical
The target in one test is stromelysin (HSLN) (Homo sapiens, UniProt P08254). The test is described as follows: MCA fluorogenic enzyme assay, competitive inhibition analysis (Ki,app), stromelysin. The conditions noted are these: Ki,app; MCA peptide substrate, 37° C., pH 7.5; read-out: Enzyme Inhibition Constants (K1) HSLN.
A further test has as its target T1, matrilysin (Matr.) (Homo sapiens, UniProt P09237).
T1 sequence (P09237 95-267): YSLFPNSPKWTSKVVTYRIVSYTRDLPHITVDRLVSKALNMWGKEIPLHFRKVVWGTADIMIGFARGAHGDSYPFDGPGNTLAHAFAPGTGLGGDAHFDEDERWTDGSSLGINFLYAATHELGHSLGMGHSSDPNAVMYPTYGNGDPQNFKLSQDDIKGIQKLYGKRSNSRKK
The experiment in a line: MCA fluorogenic enzyme assay, competitive inhibition analysis (Ki,app), matrilysin. Particulars: MCA peptide substrate, 37° C., pH 7.5, read-out: Enzyme Inhibition Constants (K1) Matr. As to the method:
Stromelysin enzymatic activity was measured using a modified version of a resonance energy transfer fluorogenic assay as described in FEBS, vol. 296(3), p. 263 (1992), the disclosure of which is incorporated herein by reference. The MCA-peptide substrate is shown below. The fluorescent MCA group is quenched by resonance energy transfer to the 2,4-dinitrophenyl group. Matrix metalloproteinases cleave this substrate at the Gly-Leu bond. Cleavage results in the loss of energy transfer and a large increase in fluorescence of the MCA group. [drawing 56] 7-methoxycoumarin-4-yl-acetyl-pro-leu-gly-leu-3-(2,4-dinitrophenyl)-L-2,3-diaminoproprionyl-ala-arg-NH2
The MCA assay was performed at 37° C. in buffer containing 50 mM Tricine (pH 7.5), 10 mM CaCl2, 200 mM NaCl, and 1% DMSO with the following concentrations of matrix metalloproteinases: 1.4 nM stromelyin, 0.063 nM matrilysin, and 0.030 nM gelatinase A. The concentration of MCA substrate was 10 or 20 μM in a final volume of 1.6 mL. Fluorescence data was collected with Perkin-Elmer LS-5B and LS-5B spectrofluorimeters with λexcitation=328 nm and λemission=393 nm. Spectrofluorimeters were interfaced with IBM-compatible microcomputer systems.
The Km for the MCA peptide substrate with the matrix metalloproteinases is quite high and exceeds its solubility under assay conditions. Consequently, the apparent Ki (Ki,app) was determined to describe the strength of inhibition. However, in this case, Ki,app would be essentially equal to Ki since [S]<<Km. For the determination of Ki,app, the concentration of the inhibitor was varied at a constant and low concentration of substrate and the steady-state rates of fluorescence change determined. In most cases absorptive quench due to the presence of ligand was not observed. For slow-binding inhibitors, onset of inhibition curves were collected for at least 45 minutes so that equilibrium was established. Steady-state rates of fluorescence change were obtained by fitting a curve to an equation for a single exponential decay containing a linear phase. The fitted value of the linear phase was taken as the steady-state rate. The steady-state rates were fitted to the Michaelis equation describing competitive inhibition by non-linear methods. Data resulting from tight-binding inhibition was analyzed, and Ki,app determined by fitting the data to the tight-binding equation of Morrison See (Biochem. Biophys. Acta, vol. 185, pp. 269-286 (1969)) by non-linear methods.

A further test deals with T2, HFC (Homo sapiens, UniProt P03956).
T2 sequence (P03956 100-469): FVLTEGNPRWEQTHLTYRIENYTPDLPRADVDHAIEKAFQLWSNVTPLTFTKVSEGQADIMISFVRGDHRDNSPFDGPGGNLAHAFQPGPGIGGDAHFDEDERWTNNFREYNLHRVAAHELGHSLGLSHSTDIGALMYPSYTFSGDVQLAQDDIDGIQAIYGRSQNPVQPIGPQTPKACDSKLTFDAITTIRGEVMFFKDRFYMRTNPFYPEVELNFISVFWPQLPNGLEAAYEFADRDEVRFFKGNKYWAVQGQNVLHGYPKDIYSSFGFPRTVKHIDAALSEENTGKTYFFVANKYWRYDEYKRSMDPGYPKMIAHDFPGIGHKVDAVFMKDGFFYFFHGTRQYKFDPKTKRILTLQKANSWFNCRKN
The experiment in a line: MCA fluorogenic enzyme assay, competitive inhibition analysis (Ki,app), HFC. The conditions noted are these: MCA peptide substrate, 37° C., pH 7.5, read-out: Enzyme Inhibition Constants (K1) HFC.

For the next test, the target named is T3, gelatinase A (HG72kD) (Homo sapiens, UniProt P08253).
T3 sequence (P08253 110-660): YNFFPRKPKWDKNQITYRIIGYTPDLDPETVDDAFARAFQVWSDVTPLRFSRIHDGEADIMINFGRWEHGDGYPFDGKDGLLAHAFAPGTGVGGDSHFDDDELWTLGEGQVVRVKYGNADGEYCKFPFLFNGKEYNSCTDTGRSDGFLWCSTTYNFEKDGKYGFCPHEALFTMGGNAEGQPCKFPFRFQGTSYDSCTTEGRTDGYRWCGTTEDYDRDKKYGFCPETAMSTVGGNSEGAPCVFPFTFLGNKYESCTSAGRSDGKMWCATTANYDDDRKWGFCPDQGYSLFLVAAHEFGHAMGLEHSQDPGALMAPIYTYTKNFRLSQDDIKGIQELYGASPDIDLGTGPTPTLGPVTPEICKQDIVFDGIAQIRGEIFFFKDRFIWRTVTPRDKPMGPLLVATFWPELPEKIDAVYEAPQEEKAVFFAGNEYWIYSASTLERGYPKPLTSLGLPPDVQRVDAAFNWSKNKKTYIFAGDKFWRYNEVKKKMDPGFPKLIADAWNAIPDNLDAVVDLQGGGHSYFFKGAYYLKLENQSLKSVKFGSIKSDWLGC
The test is described as follows: MCA fluorogenic enzyme assay, competitive inhibition analysis (Ki,app), gelatinase A. Particulars: MCA peptide substrate, 37° C., pH 7.5, read-out: Enzyme Inhibition Constants (K1) HG72kD.

The next test deals with Coll3 (Homo sapiens, UniProt P45452). The test is described as follows: MCA fluorogenic enzyme assay, competitive inhibition analysis (Ki,app), Coll3. The conditions noted are these: MCA peptide substrate, 37° C., pH 7.5, read-out: Enzyme Inhibition Constants (K1) Coll3.

Results on 15 compounds are retold here after patent US6849732B2, “Metalloproteinase inhibitors, pharmaceutical compositions containing them and their pharmaceutical uses, and methods and intermediates useful for their preparation” (Agouron Pharmaceuticals, Inc., priority 1995, dated 2005).

The structures appear in SMILES notation. Counter-ions that a name gives are not always drawn.

Sequence of stromelysin (HSLN) (P08254 100-477): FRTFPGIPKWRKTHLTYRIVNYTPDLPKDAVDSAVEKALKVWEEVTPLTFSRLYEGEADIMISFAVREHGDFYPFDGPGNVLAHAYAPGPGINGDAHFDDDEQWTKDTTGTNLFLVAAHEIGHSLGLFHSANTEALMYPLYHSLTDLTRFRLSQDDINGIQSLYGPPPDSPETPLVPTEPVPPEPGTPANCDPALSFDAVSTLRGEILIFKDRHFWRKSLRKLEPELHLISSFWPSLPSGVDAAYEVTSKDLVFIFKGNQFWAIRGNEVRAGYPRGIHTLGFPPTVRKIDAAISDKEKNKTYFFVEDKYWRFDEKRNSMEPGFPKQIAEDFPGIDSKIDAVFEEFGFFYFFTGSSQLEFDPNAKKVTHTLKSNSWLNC

Take `CC(C)(C)OC(=O)N1CCN(S(=O)(=O)c2ccc(Oc3ccccn3)cc2)C(C(=O)NO)C1` (racemic) [Example 9(d), 2(R/S)-N-hydroxy-1-(4-(pyrid-2-yl)oxybenzenesulfonyl)-4-(t-butoxycarbonyl)-piperazine-2-carboxamide]: the Ki came to 17 nM on stromelysin (HSLN); 2850 nM on matrilysin (Matr.); 550 nM on HFC; 0.716 nM at gelatinase A (HG72kD); 1.64 nM on Coll3.

As for `CNC(=O)N1CCN(S(=O)(=O)c2ccc(Oc3ccc(Cl)cc3)cc2)C(C(=O)NO)C1` (racemic) [Example 6(a), 2(R/S)-N-hydroxy-1-(4-(4-chlorophenoxy)benzenesulfonyl)-4-(N-methylcarbamoyl)-piperazine-2-carboxamide], the Ki on stromelysin (HSLN) amounted to 0.406 nM; at matrilysin (Matr.) it was 109 nM; at gelatinase A (HG72kD), 0.034 nM; at Coll3, 0.016 nM.

As for `CN1CCN(S(=O)(=O)c2ccc(Oc3ccccc3)cc2)[C@@H](C(=O)NO)C1` [Example 11(b), 2(R)-N-hydroxy-1-(4-phenoxybenzenesulfonyl)-4-methyl-piperazine-2-carboxamide], the Ki at stromelysin (HSLN) came out at 6.3 nM; at matrilysin (Matr.) it was 2180 nM; at gelatinase A (HG72kD), 0.101 nM; on Coll3, 0.158 nM.

`CN1CCN(S(=O)(=O)c2ccc(Oc3ccc(Cl)cc3)cc2)[C@@H](C(=O)NO)C1` [Example 11(a), 2(R)-N-hydroxy-1-(4-(4-chlorophenoxy)benzenesulfonyl)-4-methyl-piperazine-2-carboxamide hydrochloride]: the Ki on stromelysin (HSLN) was determined as 0.67 nM; on matrilysin (Matr.) it was 993 nM; at HFC it was 130 nM; on gelatinase A (HG72kD), 0.025 nM; at Coll3, 0.02 nM.

For the compound `COc1ccc(Oc2ccc(S(=O)(=O)N3CCN(S(C)(=O)=O)CC3C(=O)NO)cc2)cc1` (racemic) [Example 12(c)], the figures for the Ki at stromelysin (HSLN), on matrilysin (Matr.) and at HFC were 0.19 nM, 74 nM and 16 nM, respectively.

With `CC(=O)N1CCCN(S(=O)(=O)c2ccc(Oc3ccc(F)cc3)cc2)C1C(=O)NO` (racemic) [Example 22, 2(R/S)-3-acetyl-1-4-(4-fluorophenoxy)benzenesulfonyl-N-hydroxy-hexahydropyrimidine-2-carboxamide], the Ki on stromelysin (HSLN) stood at 4.4 nM; on gelatinase A (HG72kD) it was 0.077 nM; on Coll3, 0.088 nM.

Take `CC(C)(C)OC(=O)N1CCN(S(=O)(=O)c2ccc(Oc3ccc(F)cc3)cc2)[C@@H](C(=O)NO)C1` [Example 9(b), 2(R)-N-hydroxy-1-(4-(4-fluorophenoxy)benzenesulfonyl)-4-(t-butoxycarbonyl)-piperazine-2-carboxamide]: the Ki on stromelysin (HSLN) stood at 0.49 nM; on matrilysin (Matr.), 220 nM; on HFC, 18 nM; on gelatinase A (HG72kD), 0.026 nM.

`CC1(C)[C@H](C(=O)NO)N(S(=O)(=O)c2ccc(Oc3ccncc3)cc2)CC[S@@+]1[O-]` (single isomer, unassigned; isomer 1) [Example 19(a), 1(R), 3(S) isomer]: the Ki at stromelysin (HSLN) worked out at 1.4 nM; on HFC, 32 nM; on gelatinase A (HG72kD) it was 0.094 nM; on Coll3, 0.13 nM.

In the case of `O=C(NO)C1CSCCN1S(=O)(=O)c1ccc(Oc2ccc(Br)cc2)cc1` (racemic) [Example 13(a), 3(R/S)-N-hydroxy4-(4-bromophenoxybenzenesulfonyl)-tetrahydro-2H-1,4-thiazine-3-carboxamide], the Ki at stromelysin (HSLN) was found to be 0.333 nM; on matrilysin (Matr.) it was 169 nM; on gelatinase A (HG72kD) it was 0.04 nM.

In the case of `O=C(NO)C1CSCCN1S(=O)(=O)c1ccc(Oc2ccccc2)cc1` (racemic) [Example 13(b), 3(R/S)-N-hydroxy-4-(4-phenoxybenzenesulfonyl)-tetrahydro-2H-1,4-thiazine-3-carboxamide], the Ki at stromelysin (HSLN) was 0.647 nM; on matrilysin (Matr.), 201 nM; on gelatinase A (HG72kD), 0.025 nM; at Coll3 it was 0.029 nM.

For `CC1(C)NC(=O)CN(S(=O)(=O)c2ccc(Oc3ccc(F)cc3)cc2)C1C(=O)NO` (racemic) [Example 21, 2(R/S)-1-[4-(4-fluorophenoxy)benzenesulfonyl]-3,3-dimethyl-N-hydroxy-5-oxo-piperazine-2-carboxamide], the Ki amounted to 0.84 nM on stromelysin (HSLN), 5.9 nM at HFC, 0.066 nM at gelatinase A (HG72kD) and 0.068 nM at Coll3.

For `O=C1C[C@H](C(=O)NO)N(S(=O)(=O)c2ccc(Oc3ccc(F)cc3)cc2)CN1` [Example 15(b), 6(R)-(N-hydroxycarbamoyl)-1-(4-(4-fluorophenoxy)benzene-sulfonyl)-tetrahydropyrimidin-4-one], the Ki on stromelysin (HSLN) was 5.1 nM; on matrilysin (Matr.), 1840 nM; at HFC, 187 nM; on gelatinase A (HG72kD), 0.152 nM.

Regarding `CC1(C)SCCN(S(=O)(=O)c2ccc(Oc3ccc(Cl)cc3)cc2)[C@H]1C(=O)NO` [Example 3(b), 3(S)-N-hydroxy4-(4-(4-chlorophenoxy)benzenesulfonyl)-2,2-dimethyl-tetrahydro-2H-1,4-thiazine-3-carboxamide], the Ki on stromelysin (HSLN) was 0.059 nM; at HFC, 1.3 nM; at gelatinase A (HG72kD) it was 0.017 nM; on Coll3 it was 0.001 nM.

Consider `CC1(C)[C@H](C(=O)NO)N(S(=O)(=O)c2ccc(Oc3ccncc3)cc2)CC[S@+]1[O-]` [Example 19(a), 1(S), 3(S) isomer, 1(S), 3(S)-N-hydroxy-4-(4-((pyrid-4-yl)oxy)benzenesulfonyl)-2,2-dimethyl-1-oxotetrahydro-2H-1,4-thiazine-3-carboxamide], for which the Ki at stromelysin (HSLN) worked out at 2.3 nM; on HFC, 31 nM; at gelatinase A (HG72kD) it was 0.49 nM; on Coll3 it was 0.16 nM.

Consider `CCOC(=O)CN1CCN(S(=O)(=O)c2ccc(Oc3ccc(Cl)cc3)cc2)[C@@H](C(=O)NO)C1` [Example 11(c), 2(R)-N-hydroxy-1-(4-(4-chlorophenoxy)benzenesulfonyl)-4-(ethoxycarbonylmethyl)-piperazine-2-carboxamide hydrochloride], for which the Ki at stromelysin (HSLN) was 0.25 nM; on matrilysin (Matr.), 240 nM; at HFC, 48 nM.
